US12172969B2 (EVOFEM BIOSCIENCES, INC., priority 2018, dated 2024)

Experiments:
[1] = system: cDNA-expressed CYP1A2, CYP2A6, CYP2B6, CYP2C8, CYP2C9, CYP2C19, CYP2D6, CYP2E1, CYP3A4, and CYP3A5; experiment: Metabolism by cDNA-expressed human CYP enzymes (all isoforms), parent remaining by LC-MS/MS; settings: 1.0 μM and 10 μM, 120 minutes incubation, 37° C., compared to 0 min
Description: (§1) At two time points (0 and 120 min), the reaction was stopped by removing an aliquot and combining it with an equal volume of cold acetonitrile containing an internal standard (labetalol) and placement on ice. Samples were centrifuged to pellet the protein and the supernatant was frozen at −20° C. for subsequent analysis by LC-MS/MS.
(§2) Protein concentrations were constant for all isoforms within an experiment and standardized by the addition of control microsomes. Incubations were performed in duplicate. Incubations with vector control enzyme preparations and without enzyme source were included as negative controls.
All other positive controls were assayed at one concentration in duplicate in accordance with the methods described above. The percent of parent remaining at the end of the incubation was compared to 0 min based on the peak area ratio of the substrate and internal standard.
(§3) The fraction of parent compound remaining compared to 0 min was determined based on peak area ratio (analyte/internal standard).

cDNA-expressed CYP2C8 = target: T1, cDNA-expressed CYP2C8 (Homo sapiens, UniProt P10632); experiment: Metabolism by cDNA-expressed CYP2C8, parent remaining; settings: 10 μM; for depletion by cDNA-expressed CYP2C8: 120 minutes
T1 sequence (P10632 1-490): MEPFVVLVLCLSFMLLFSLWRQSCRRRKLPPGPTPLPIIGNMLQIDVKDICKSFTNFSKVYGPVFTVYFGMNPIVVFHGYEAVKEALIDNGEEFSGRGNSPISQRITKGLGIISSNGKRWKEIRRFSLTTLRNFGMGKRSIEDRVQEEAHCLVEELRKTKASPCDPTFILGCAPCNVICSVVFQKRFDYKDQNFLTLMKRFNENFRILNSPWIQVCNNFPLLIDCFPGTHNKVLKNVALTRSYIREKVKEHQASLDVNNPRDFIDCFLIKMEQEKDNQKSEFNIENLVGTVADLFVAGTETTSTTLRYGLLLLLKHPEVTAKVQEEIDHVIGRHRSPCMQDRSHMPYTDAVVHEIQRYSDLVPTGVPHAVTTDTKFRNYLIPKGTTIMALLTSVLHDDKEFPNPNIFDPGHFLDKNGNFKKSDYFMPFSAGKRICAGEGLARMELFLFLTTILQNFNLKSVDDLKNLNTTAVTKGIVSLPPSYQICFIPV
Description: as §1, §2, §3

cDNA-expressed CYP2C9 = cDNA-expressed CYP2C9 (Homo sapiens, UniProt P11712); experiment: Metabolism by cDNA-expressed CYP2C9, parent remaining; settings: 10 μM; for depletion by cDNA-expressed CYP2C9: 120 minutes
Description: as §1, §2, §3

[2] = in vivo; cited from earlier work

Chain of cDNA-expressed CYP2C9 (P11712 whole entry): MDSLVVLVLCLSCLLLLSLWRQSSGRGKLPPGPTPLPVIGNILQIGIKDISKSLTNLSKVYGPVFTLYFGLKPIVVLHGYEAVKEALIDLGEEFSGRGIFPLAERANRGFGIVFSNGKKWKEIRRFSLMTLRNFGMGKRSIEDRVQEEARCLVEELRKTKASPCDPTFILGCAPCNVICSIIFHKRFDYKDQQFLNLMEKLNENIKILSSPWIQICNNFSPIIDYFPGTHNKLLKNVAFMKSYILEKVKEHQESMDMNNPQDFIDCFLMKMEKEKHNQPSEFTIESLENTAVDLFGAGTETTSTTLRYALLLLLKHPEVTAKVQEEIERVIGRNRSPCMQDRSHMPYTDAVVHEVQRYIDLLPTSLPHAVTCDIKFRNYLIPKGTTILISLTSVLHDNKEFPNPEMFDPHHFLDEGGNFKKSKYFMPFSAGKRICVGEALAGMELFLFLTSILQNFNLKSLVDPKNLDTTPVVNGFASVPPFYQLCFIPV

Row | Compound | average percent of parent compound remaining for all isoforms and concentrations [1] | depletion by cDNA-expressed CYP2C8 (cDNA-expressed CYP2C8) | depletion by cDNA-expressed CYP2C9 (cDNA-expressed CYP2C9) | percent of parent remaining (cDNA-expressed CYP2C8; human, 2 h, pH 7.4) [%] | percent of parent remaining (cDNA-expressed CYP2C9; human, 2 h, pH 7.4) [%] | excreted intact in the urine [2] [%]
1 | α,2-dimethyl-5-nitro-1H-imidazole-1-ethanol-d6 [secnidazole-d6] | less than 100% | did not demonstrate any depletion | did not demonstrate any depletion |  |  | 
2 | Cc1ncc([N+](=O)[O-])n1CC(C)O (stereo not drawn) [secnidazole, 1-(2-methyl-5-nitro-1H-imidazol-1-yl) propan-2-ol, reference compound] |  |  |  | 82 | 79 | 50
3 | α,2-dimethyl-5-nitro-1H-imidazole-1-ethanol-d3 [secnidazole-d3] | greater than 96% | did not demonstrate any depletion | did not demonstrate any depletion |  |  | 
